{"source": "patent US9951021B2", "about": "“Compounds for inhibiting c-Myc/Max/DNA complex formation” (NATIONAL CANCER CENTER, priority 2016, dated 2018)", "note": "pIC50: −log10 of the molar value."}
{"biological_target": "T1, recombinant c-Myc/Max (Homo sapiens, UniProt P01106+P61244)", "T1 construct": "made in house", "T1 sequence (P01106 whole entry)": "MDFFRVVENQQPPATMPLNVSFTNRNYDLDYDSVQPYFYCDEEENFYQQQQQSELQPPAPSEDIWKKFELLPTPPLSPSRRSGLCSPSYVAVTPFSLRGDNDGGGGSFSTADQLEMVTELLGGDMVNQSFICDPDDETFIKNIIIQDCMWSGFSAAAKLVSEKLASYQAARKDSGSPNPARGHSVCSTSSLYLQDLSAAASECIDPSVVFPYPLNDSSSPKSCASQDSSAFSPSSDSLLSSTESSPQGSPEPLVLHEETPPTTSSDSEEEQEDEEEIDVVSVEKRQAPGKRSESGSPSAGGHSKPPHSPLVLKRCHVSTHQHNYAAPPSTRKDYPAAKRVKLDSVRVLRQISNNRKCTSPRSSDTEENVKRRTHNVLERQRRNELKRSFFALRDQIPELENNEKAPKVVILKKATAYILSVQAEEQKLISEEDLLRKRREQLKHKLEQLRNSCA", "T1 sequence (P61244 whole entry)": "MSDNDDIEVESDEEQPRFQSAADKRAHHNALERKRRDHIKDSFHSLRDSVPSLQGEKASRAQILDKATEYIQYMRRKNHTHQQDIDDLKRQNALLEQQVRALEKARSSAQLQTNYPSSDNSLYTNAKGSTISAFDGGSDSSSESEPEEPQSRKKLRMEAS", "assay": "Electrophoretic mobility shift assay (EMSA): inhibitory activity on DNA binding of recombinant c-Myc/Max", "details": "read-out: protein assay IC50", "procedure": "1) Preparation of Recombinant c-Myc and Max Proteins\nRecombinant proteins were prepared as described in the following references: K. C. Jung et al., Fatty Acids, Inhibitors for the DNA Binding of c-Myc/Max Dimer, Suppress Proliferation and Induce Apoptosis of Differentiated HL-60 Human Leukemia Cell, Leukemia, 2006, 20(1), 122-7 or Kyung-Chae Jeong et al., Small-Molecule Inhibitors of c-Myc Transcriptional Factor Suppress Proliferation and Induce Apoptosis of Promyelocytic Leukemia Cell via Cell Cycle Arrest, Mol. BioSyst., 2010, 6, 1503-1509.\n2) Electrophoretic Mobility Shift Assay (EMSA)\nThe inhibitory activity of each candidate compound on DNA binding of recombinant c-Myc/Max was measured using an electrophoretic mobility shift assay (EMSA). The ratio of protein-DNA complexes in each sample was evaluated by measuring band intensity. The oligonucleotides (E-box) corresponding to the consensus binding site of Myc/Max were dimerized through an annealing process. The protein mixture was incubated at room temperature for 5 minutes, and a DMSO solution containing each candidate compound was added thereto. The mixture was further incubated for 5 minutes, and the biotinylated DNA was added. To achieve a state of equilibrium, the final mixture was incubated at room temperature for 10 minutes. The protein-DNA complexes were separated from unbound free DNA by pre-electrophoresis using 8% polyacrylamide gel and 1×TBE buffer. After pre-electrophoresis, electrophoresis was performed at 120 V for 1 hour in 1×TBE buffer. Each band was visualized using HRP-conjugated streptavidin and an ECL solution, and band intensity was measured using image analysis software."}
{"smiles": "COc1cccc2[nH]c(SCc3ccc(S(F)(F)(F)(F)F)cc3)c(C(C)=O)c(=O)c12", "note": "[Compound 92, 3-acetyl-5-methoxy-2-((4-(pentafluoro-λ6-sulfanyl)benzyl)thio)quinolin-4(1H)-one]", "pIC50": "> 6.00"}
{"smiles": "CSc1c(C(C)=O)c(=O)c2cc(F)ccc2n1C", "note": "[Compound 7, 3-acetyl-6-fluoro-1-methyl-2-(methylthio)quinolin-4(1H)-one]", "pIC50": "> 6.00"}
{"smiles": "CC(=O)c1c([S+]([O-])Cc2ccc(F)cc2F)[nH]c2c(Br)ccc(Cl)c2c1=O", "note": "(stereo not drawn) [Compound 29, 3-acetyl-8-bromo-5-chloro-2-((2,4-difluorobenzyl)sulfinyl)quinolin-4(1H)-one]", "pIC50": "> 6.00"}
{"smiles": "CC(=O)c1c([S+]([O-])Cc2ccc(C(C)(C)C)cc2)[nH]c2c(Br)ccc(Cl)c2c1=O", "note": "(stereo not drawn) [Compound 60, 3-acetyl-8-bromo-2-((4-(tert-butyl)benzyl)sulfinyl)-5-chloroquinolin-4(1H)-one]", "pIC50": "> 6.00"}
{"smiles": "Cc1cc(C[S+]([O-])c2[nH]c3c(Br)ccc(Cl)c3c(=O)c2C(=O)C2CC2)no1", "note": "(stereo not drawn) [Compound 96, 8-bromo-5-chloro-3-(cyclopropanecarbonyl)-2-(((5-methylisoxazol-3-yl)methyl)sulfinyl)quinolin-4(1H)-one]", "pIC50": "> 6.00"}
{"smiles": "COCSc1[nH]c2c(Br)ccc(Cl)c2c(=O)c1C(C)=O", "note": "[Compound 61, 3-acetyl-8-bromo-5-chloro-2-((methoxymethyl)thio)quinolin-4(1H)-one]", "pIC50": "> 6.00"}
{"smiles": "CC(=O)c1c([S+]([O-])Cc2ccc(I)cc2)[nH]c2c(Cl)ccc(Cl)c2c1=O", "note": "(stereo not drawn) [Compound 83, 3-acetyl-5,8-dichloro-2-((4-iodobenzyl)sulfinyl)quinolin-4(1H)-one]", "pIC50": "> 6.00"}
{"smiles": "CC(=O)c1c([S+]([O-])Cc2ccc(S(F)(F)(F)(F)F)cc2F)[nH]c2c(Br)ccc(Cl)c2c1=O", "note": "(stereo not drawn) [Compound 69, 3-acetyl-8-bromo-5-chloro-2-((2-fluoro-4-(pentafluoro-16-sulfanyl)benzyl)sulfinyl)quinolin-4(1H)-one]", "pIC50": "> 6.00"}
{"smiles": "CC(=O)c1c([S+](C)[O-])n(S(=O)(=O)C(F)(F)F)c2c(Br)ccc(Cl)c2c1=O", "note": "(stereo not drawn) [Compound 36, 3-acetyl-8-bromo-5-chloro-2-(methylsulfinyl)-1-((trifluoromethyl)sulfonyl)quinolin-4(1H)-one]", "pIC50": "> 6.00"}
{"smiles": "CC(=O)c1c([S+]([O-])Cc2cc(F)cc(F)c2)[nH]c2c(Br)ccc(Cl)c2c1=O", "note": "(stereo not drawn) [Compound 46, 3-acetyl-8-bromo-5-chloro-2-((3,5-difluorobenzyl)sulfinyl)quinolin-4(1H)-one]", "pIC50": "> 6.00"}
{"smiles": "CC(=O)c1c([S+]([O-])Cc2ccc(F)c(Cl)c2)[nH]c2c(Br)ccc(Cl)c2c1=O", "note": "(stereo not drawn) [Compound 31, 3-acetyl-8-bromo-5-chloro-2-((3-chloro-4-fluorobenzyl)sulfinyl)quinolin-4(1H)-one]", "pIC50": "> 6.00"}
{"smiles": "CC(=O)c1c(S(C)(=O)=O)n(C(=O)c2ccc(Br)cc2)c2c(Br)ccc(Cl)c2c1=O", "note": "[Compound 21, 3-acetyl-8-bromo-1-(4-bromobenzoyl)-5-chloro-2-(methylsulfonyl)quinolin-4(1H)-one]", "pIC50": "> 6.00"}
{"smiles": "CC(=O)c1c([S+]([O-])Cc2c(F)cccc2Cl)[nH]c2c(Br)ccc(Cl)c2c1=O", "note": "(stereo not drawn) [Compound 74, 3-acetyl-8-bromo-5-chloro-2-((2-chloro-6-fluorobenzyl)sulfinyl)quinolin-4(1H)-one]", "pIC50": "> 6.00"}
{"smiles": "CC(=O)c1c([S+]([O-])Cc2ccc(NS(C)(=O)=O)cc2)[nH]c2c(Br)ccc(Cl)c2c1=O", "note": "(stereo not drawn) [Compound 103, N-(4-(((3-acetyl-8-bromo-5-chloro-4-oxo-1,4-dihydroquinolin-2-yl)sulfinyl)methyl)phenyl)methanesulfonamide]", "pIC50": "> 6.00"}
{"smiles": "CC(=O)c1c([S+]([O-])Cc2ccc(SC(F)(F)F)cc2)[nH]c2c(Br)ccc(Cl)c2c1=O", "note": "(stereo not drawn) [Compound 56, 3-acetyl-8-bromo-5-chloro-2-((4-((trifluoromethyl)thio)benzyl)sulfinyl)quinolin-4(1H)-one]", "pIC50": "> 6.00"}
